Source: patent US11065293B2 (priority 2016, dated 2021)

Key:
Assay type in all cases: in vivo, rats
[1] = tail flick latency after Taxol-induced pain; conditions: Taxol 20 mg/kg day 0 to day 5; day 3, day 7 and day 14; composition 21 days twice daily, vs contrast group
Experimental: To understand the effect of presented pharmaceutical composition on cancer pain, the experiment was following: 6 to 7 week-old female rats (20-24 grams, ICR) were divided into control group, contrast group and experimental group. […] In contrast group and experimental group, rats were administered Taxol® (20 mg/kg) from day 0 to day 5 to induce the pain. Besides, the experimental group were also treated with presented pharmaceutical composition for 7 days before administered Taxol®, and continuously treated for 14 days after administered Taxol®. Therefore, the total days of presented pharmaceutical composition administered in experimental group is 21 days. The administered method is twice daily, and the dosage was 0.5-1.67 uL/mouse. On day 3, 7 and 14 during the drug administration, the tail flick latency (Tail-Flick Unit 37360) was conducted. The tail flick latency is used to evaluate the degree of change of pain threshold by heating the tail of rat through infrared.

[2] = organ weight after Taxol administration; conditions: day 15, contrast group (Taxol) vs control group, experimental group even lower than control group
Excerpt: Cancer pain is a kind of pain caused by cancer, which is most common symptoms and most feared symptoms for patients. If the pain is not controlled properly, the life quality of patients would be affected severely. To understand the effect of presented pharmaceutical composition on cancer pain, the experiment was following: 6 to 7 week-old female rats (20-24 grams, ICR) were divided into control group, contrast group and experimental group. In control group, rats were not gave any medication. In contrast group and experimental group, rats were administered Taxol® (20 mg/kg) from day 0 to day 5 to induce the pain. Besides, the experimental group were also treated with presented pharmaceutical composition for 7 days before administered Taxol®, and continuously treated for 14 days after administered Taxol®. Therefore, the total days of presented pharmaceutical composition administered in experimental group is 21 days. The administered method is twice daily, and the dosage was 0.5-1.67 uL/mouse. On day 3, 7 and 14 during the drug administration, the tail flick latency (Tail-Flick Unit 37360) was conducted. The tail flick latency is used to evaluate the degree of change of pain threshold by heating the tail of rat through infrared.
Organ hypertrophy is common side effect induced by chemotherapy drugs. To understand the impact of the presented pharmaceutical compositions on organs, the female rats of example 5 were sacrificed on day 15. The heart, liver, spleen and kidney acquired from rats were weighted respectively.

white blood cells = conditions: for the numbers of white blood cell, Day 0 before chemotherapy: day 0 before cyclophosphamide, experimental group pretreated 5 days with composition, disease and contrast groups not yet treated; for the numbers of white blood cell, Day 4 after chemotherapy: day 4 after cyclophosphamide, G-CSF on day 2 to day 4, composition twice daily 0.5-1.67 uL/mouse; for the numbers of white blood cell, Day 7 after chemotherapy: day 7 after cyclophosphamide; for the numbers of white blood cell, Day 10 after chemotherapy: day 10 after cyclophosphamide; for numbers of white blood cell (in words): disease group vs normal group, contrast group on day 7 and day 10, experimental group vs contrast group after chemotherapy
Excerpt: Furthermore, a common side effect of chemotherapy is a drop in the number of white blood cells, which leads to an increased risk of getting an infection. Currently, granulocyte colony stimulating factor (G-CSF) treatment can make white blood cell levels go up faster. However, patients may have one or more side effects of using G-CSF. To understand the effect of present pharmaceutical composition on white blood cells, cyclophosphamide-induced leukopenia experiment execute as follows: 6 to 7 week-old female rats (20-24 grams, ICR) were divided into normal group, disease group, contrast group and experimental group. In normal group, rats were not gave any medication. In disease, contrast and experimental group, rats were administered cyclophosphamide on day 0 to induce leukopenia. Besides, in contrast group, rats were also administered G-CSF on day 2 to day 4. In experimental group, rats were treated with presented pharmaceutical composition for 5 days before administered cyclophosphamide, and continuously treated for 10 days after administered cyclophosphamid. Therefore, the total days of presented pharmaceutical composition administered in experimental group is 15 days. The administered method of presented pharmaceutical composition is twice daily, and the dosage was 0.5-1.67 uL/mouse. The rats in each group were phlebotomized on day 0 before chemotherapy, and on day 4, day 7 and day 10 after chemotherapy.

Row | Molecule | tail flick latency [1] | heart weight ([2]; FIG. 8A) | liver weight ([2]; FIG. 8B) | spleen weight ([2]; FIG. 8C) | kidney weight ([2]; FIG. 8D) | the numbers of white blood cell, Day 0 before chemotherapy (white blood cells) | the numbers of white blood cell, Day 4 after chemotherapy (white blood cells) | the numbers of white blood cell, Day 7 after chemotherapy (white blood cells) | the numbers of white blood cell, Day 10 after chemotherapy (white blood cells) | numbers of white blood cell (in words) (white blood cells)
1 | CC(=O)O[C@H]1C(=O)[C@@]2(C)[C@H]([C@H](OC(=O)c3ccccc3)[C@]3(O)C[C@H](OC(=O)[C@H](O)[C@@H](NC(=O)c4ccccc4)c4ccccc4)C(C)=C1C3(C)C)[C@]1(OC(C)=O)CO[C@@H]1C[C@@H]2O [Taxol®] | lower | significantly heavier | significantly heavier | significantly heavier | significantly heavier | – | – | – | – | –
2 | O=P1(N(CCCl)CCCl)NCCCO1 (stereo not drawn) [cyclophosphamide] | – | – | – | – | – | 887 | 56 | 333 | 772 | extremely reduced
3 | G-CSF: granulocyte colony stimulating factor, given day 2 to day 4 after cyclophosphamide; contrast group of leukopenia experiment (protein, UniProt P09919 31-207, looked up) Granulocyte …: TPLGPASSLPQSFLLKCLEQVRKIQGDGAALQEKLVSECATYKLCHPEELVLLGHSLGIPWAPLSSCPSQALQLAGCLSQLHSGLFLYQGLLQALEGISPELGPTLDTLQLDVADFATTIWQQMEELGMAPALQPTQGAMPAFASAFQRRAGGVLVASHLQSFLEVSYRVLRHLAQP | – | – | – | – | – | 843 | 51 | 528 | 768 | increase
